In patent US11738031B2, “Compositions and methods for preventing or treating muscle conditions” (The Board of Trustees of the Leland Stanford Junior …, priority 2017, dated 2023):

Assays:
[1] = published, FDA approved dose range; cited from earlier work
[2] = system: endogenous MuSCs in tibialis anterior (TA) muscles; test: BLI of endogenous MuSC expansion after intramuscular bupivacaine/dmPGE2 (Example 4); format: in vivo, mouse; conditions: 0.125%, 0.25% or 0.5% BPV in combination with 10 μg dmPGE2, two weeks after injection
Protocol: Double-transgenic Pax7^CreERT2;Rosa26-LSL-Luc mice were generated by crossing Pax7^CreERT2 mice and Rosa26-LSL-Luc mice obtained from Jackson Laboratory (Stock #005125). These genotypes were validated by appropriate PCR-based strategies. All mice from transgenic and wild-type strains were of young age (2-4 months). All experiments were conducted using age and gender-matched controls. As depicted in the experimental scheme shown in FIG. 23A, mice were treated with five consecutive daily intraperitoneal injections of tamoxifen to activate luciferase expression under the control of the Pax7 promoter. A week after the last tamoxifen injection, the tibialis anterior (TA) muscles were injected intramuscularly with 50 μL of a drug mixture containing 0.125%, 0.25%, or 0.5% bupivacaine (BPV) (Cayman Chemical Cat #16618) and 10 μg 16,16-dimethyl prostaglandin E2 (dmPGE2; Tocris, Catalog #4027) using a 30 gauge needle on a Hamilton syringe. The contralateral TA received 50 μL of a mixture containing 0.5% bupivacaine (BPV) and DMSO vehicle as baseline sham control. Bioluminescence was assayed at days 3, 7, 10 and 14 post-injury.
Bioluminescence imaging (BLI) was performed using a Xenogen-100 system, as previously described. Briefly, mice were anesthetized using isofluorane inhalation and administered 120 μL D-luciferin (0.1 mmol/kg, reconstituted in PBS; Caliper LifeSciences) by intraperitoneal injection. BLI was acquired with between 5-60 second exposure at F-stop=1.0 at 5 minutes after luciferin injection. Digital images were recorded and analyzed using Living Image software (Caliper LifeSciences). Images were analyzed with a consistent region-of-interest (ROI) placed over each hindlimb to calculate a bioluminescence signal. A bioluminescence signal was calculated in radiance (p s^−1 cm^−2 sr^−1) value of 10^4 to define a positive threshold signal over background. BLI imaging was performed bi-weekly for 2 weeks after coinjection of BPV with dmPGE2 or vehicle.
The data in FIGS. 23A-C and 24 are shown as the mean±s.e.m. with n=6 mice. […]

**Q.** With `CCCCN1CCCCC1C(=O)Nc1c(C)cccc1C` (centres unmarked) [bupivacaine] as the molecule, how does the NOAEL [1] read?
**A.** The NOAEL was 0.5%.

**Q.** And the “muscle regeneration (fold change in BLI) vs BPV dose” value [2]?
**A.** Its value is “dose-dependent increase in muscle regeneration”.
